Patent US20100173278A1, “MICROCAPSULES CONTAINING MAMMALS' SPERMATOZOIDS, INSEMINATION DOSE CONTAINING SAME AND METHOD FOR OBTAINING SAME” (Cooperative Bretonne D'Insemination Artificielle Porcine, priority 2007, published 2010)
Read-outs that look alike come from different tables or passages of the source.

System: semen
Assay: Biocompatibility with semen (non-spermicidal; mobility and viability of the spermatozoa)
Format: cell-based, swine
Source text: A summary of the tests conducted is given in the table at the end of the description.

Tween 85
Bio-compatibility: Yes

sorbitan monolaurate [Span 20]
effect on the mobility and viability of the spermatozoa: lack of any harmful effect
spermicidal role with respect to semen: non-spermicidal
Bio-compatibility (surfactant concentration 0.5%, matrix Suppocire DM): Yes
Bio-compatibility (surfactant concentration 1%, matrix Gelucire 43/01): Yes
Bio-compatibility (surfactant concentration 1%, matrix Suppocire DM): Yes
